According to publication PMC12263422, “Cryo-EM structure of the human THIK-1 K2P K^+ channel reveals a lower Y gate regulated by lipids and anesthetics” (Nature Structural & Molecular Biology, 2025):
Numbering of substitutions follows the chain as printed. Where “and” joins values, the source holds several entries; their conditions need not be identical. Equal values may be shown once.

Legend:
Type in all cases: cell-based
[1] = biological target: T1, Human K2P13.1 THIK-1 (WT) (Homo sapiens, UniProt Q9HB14); experiment: Macroscopic inside-out excised patch recordings from Xenopus oocytes expressing WT THIK-1; compounds applied to the intracellular side; settings: for extent of activation by oleoyl-CoA: 5 µM oleoyl-CoA; for Fold activation: 5.0 µM oleoyl-CoA
T1 construct: expressed in transfected cells; host or cells: Xenopus oocytes (mRNA injection)
T1 sequence (Q9HB14 1-408): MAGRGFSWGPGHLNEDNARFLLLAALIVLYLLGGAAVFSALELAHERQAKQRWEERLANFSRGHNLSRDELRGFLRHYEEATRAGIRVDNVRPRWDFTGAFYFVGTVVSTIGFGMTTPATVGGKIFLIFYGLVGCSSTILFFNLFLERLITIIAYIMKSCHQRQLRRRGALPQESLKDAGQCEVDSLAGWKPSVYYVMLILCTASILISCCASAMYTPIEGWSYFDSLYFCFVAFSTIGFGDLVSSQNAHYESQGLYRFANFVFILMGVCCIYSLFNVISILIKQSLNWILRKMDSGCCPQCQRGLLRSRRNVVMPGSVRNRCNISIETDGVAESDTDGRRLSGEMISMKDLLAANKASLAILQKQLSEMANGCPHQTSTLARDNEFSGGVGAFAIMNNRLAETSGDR
Description: (§1) Human K2P13.1 THIK-1 (GenBank accession number: NM_022054) and human K2P12.1 THIK-2 (NM_022055.1) were used in this study. For functional expression studies, the respective K^+ channel subtype coding sequences were subcloned into the oocyte expression vector pSGEM or the dual-purpose expression vector pFAW[41] and verified by sequencing. All mutant channels were obtained by site-directed mutagenesis and verified by sequencing. To increase surface expression and macroscopic currents, measurements of THIK-2 channels used a mutated ER retention motif, (R11A R12A R14A R15A R16A; THIK-2*)[20]. Vector DNA was linearized with NheI or MluI, and mRNA was synthesized in vitro using the SP6 or T7 AmpliCap Max High Yield Message Maker Kit (Cellscript, USA) or HiScribe T7 ARCA mRNA Kit (New England Biolabs).
(§2) Two-electrode voltage–clamp (TEVC) studies were performed in Xenopus oocytes. All animal use conformed to the Guide for the Care and Use of Laboratory Animals (NIH Publication 85–23), and all experiments using Xenopus toads were approved by the local ethics panels. Oocytes were stored at 17 °C in ND96 recording solution composed of (in mM): 96 NaCl, 2 KCl, 1.8 CaCl2, 1 MgCl2, 5 HEPES (pH 7.5 adjusted with NaOH and HCl), supplemented with Na-pyruvate (275 mg L^–1), theophylline (90 mg L^–1) and gentamicin (50 mg L^–1). Oocytes were injected with 1 ng mRNA for WT or mutant channels, and were incubated for 24–48 h at 17 °C. Two-electrode voltage clamp recordings were then performed as previously described[42],[43]. For macroscopic patch–clamp measurements, oocytes were obtained as described above incubated at 17 °C in a solution containing (mM): 54 NaCl, 30 KCl, 2.4 NaHCO3, 0.82 MgSO4 ×7 H2O, 0.41 CaCl2, 0.33 Ca(NO3)2 ×4 H2O and 7.5 TRIS (pH 7.4 adjusted with NaOH and HCl) for 1–4 days before use. Excised patch recordings in inside-out configuration conditions were performed at room temperature. Patch pipettes were made from thick-walled borosilicate glass GB 200TF-8P (Science Products), had resistances of 0.2–0.5 MΩ (tip diameter, 10–25 µm) and filled with a pipette solution (in mM): 120 KCl, 10 HEPES and 3.6 CaCl2 (pH 7.4 adjusted with KOH and HCl). Intracellular bath solutions and compounds were applied to the cytoplasmic side of excised patches for the various K^+ channels through a gravity flow multi-barrel pipette system. The intracellular solution had the following composition (in mM): 120 KCl, 10 HEPES, 2 EGTA and 1 pyrophosphate (pH adjusted with KOH and HCl). Currents were recorded with an EPC10 amplifier (HEKA Electronics) and sampled at 10 kHz or higher, with filtering set to 3 kHz (–3 dB) or higher, as appropriate for sampling rate. For measurements of GPCR activation, whole-cell currents were recorded for THIK-1 in transiently transfected HEK-293 cells. Cells were stimulated by a ramp protocol between −100 and +60 mV (holding potential, −80 mV). The pipette solution was composed of (in mM): 140 KCl, 2 MgCl2, 1 CaCl2, 2.5 EGTA and 10 HEPES (pH 7.3 adjusted with KOH and HCl). The extracellular bath solution had the following composition (in mM): 135 NaCl, 5 KCl, 2 MgCl2, 2 CaCl2, 10 glucose and 10 HEPES pH (pH 7.3 adjusted with NaOH and HCl). Oxotremorine M (Oxo-M) was added to extracellular bath solution to obtain the final concentration. Single-channel currents were recorded with an Axopatch 200B amplifier through a Digidata 1440A digitizer (Molecular Devices). Data were filtered at 2 kHz and recorded at a 200-kHz sampling rate with the program Clampex (Molecular Devices). Pipette solution and bath solution for cell-attached recordings contained (in mM): 140 KCl, 2 MgCl2, 1 CaCl2 and 10 HEPES (pH 7.4 adjusted with KOH and HCl). For inside-out recordings, the bath solution contained (in mM): 140 KCl, 2 MgCl2, 1 CaCl2 and 10 HEPES (pH 7.2 adjusted with KOH and HCl). All experiments were conducted at room temperature. […]

THIK-1 R92A = biological target: T2, THIK-1 R92A (Homo sapiens, UniProt Q9HB14, R92A); experiment: Inside-out excised patch recordings, oocytes, THIK-1 R92A mutant (lipid activation); settings: THIK-1 R92A
T2 construct: expressed in transfected cells; host or cells: Xenopus oocytes (mRNA injection)
T2 sequence (Q9HB14 1-408 R92A): T1 sequence (Q9HB14 1-408) with R92A
Description: as §1, §2

THIK-1 F262A = biological target: T3, THIK-1 F262A (Homo sapiens, UniProt Q9HB14, F262A); experiment: Inside-out excised patch recordings, oocytes, THIK-1 F262A mutant (lipid activation); settings: THIK-1 F262A
T3 construct: expressed in transfected cells; host or cells: Xenopus oocytes (mRNA injection)
T3 sequence (Q9HB14 1-408 F262A): T1 sequence (Q9HB14 1-408) with F262A
Description: as §1, §2

Structure (SMILES): CCCCCCCC/C=C\CCCCCCCC(=O)SCCNC(=O)CCNC(=O)[C@H](O)C(C)(C)COP(=O)(O)OP(=O)(O)OC[C@H]1O[C@@H](n2cnc3c(N)ncnc32)[C@H](O)[C@@H]1OP(=O)(O)O [oleoyl-CoA]
- extent of activation by oleoyl-CoA ([1]; WT): 14 ± 1 fold
- extent of activation by oleoyl-CoA ([1]; WT preinhibited with halothane (15.2 mM)): 8 ± 2 fold
- Fold activation ([1]; WT, Halothane pre-inhibited (15.2 mM halothane), individual recordings): 8.238 and 0.783 and 13.259 and 5.975 and 16.259 and 6.147 and 12.474 and 4.311
- Fold activation ([1]; WT, Halothane pre-inhibited (15.2 mM halothane), mean): 8.43
- Fold activation ([1]; WT, absence of halothane, mean): 13.60
- Fold activation with 5.0 µM oleoyl-CoA ([1]; THIK-1 WT, mean): 13.60
- Fold activation with 5.0 µM oleoyl-CoA (THIK-1 R92A; individual recordings): 19.660 and 15.940 and 13.100 and 29.730 and 21.570 and 18.010
- Fold activation with 5.0 µM oleoyl-CoA (THIK-1 R92A; mean): 19.67
- Fold activation with 5.0 µM oleoyl-CoA (THIK-1 F262A; individual recordings): 16.700 and 14.500 and 16.910 and 15.530 and 18.460 and 22.210
- Fold activation with 5.0 µM oleoyl-CoA (THIK-1 F262A; mean): 17.39
